Assay results published in PubChem BioAssay AID2060899 (Molecular Pharmacology Branch, DTP, NCI, 2025).
pIC50: −log10 of the molar value.

System: 565726-208-R1-J5-PDC complex spheroids, growth inhibition
Test: Anticancer human tumor 565726-208-R1-J5-PDC patient-derived pancreatic adenocarcinoma cell line growth inhibition [RAS]
Conditions: for pIC50: curve of first compound; for viability, T/C: stronger effect = lower value
How it was run: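 Multi-cell-type spheroids: tumor cells plus HUVEC endothelial cells and mesenchymal stem cells. RAS-pathway inhibitors were combined with targeted agents, each dosed in half-log steps down from clinical Cmax, or from 10 microM when Cmax was unknown.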
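Further: spheroids exposed to compounds for seven days before readout.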
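Wherever viability, T/C is given: 100% = DMSO vehicle control viability.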

Compound: O=C(c1ccc(F)c(F)c1Nc1ccc(I)cc1F)N1CC(O)([C@@H]2CCCCN2)C1 + CCn1c(-c2cc(N3CCN(C)CC3)cnc2C(C)OC)c2c3cc(ccc31)-c1csc(n1)CC(NC(=O)C1CC1C)C(=O)N1CCCC(N1)C(=O)OCC(C)(C)C2
- pIC50 (second compound 0.000949 µM): 6.99
- pIC50 (second compound 0.003 µM): 7.99
- pIC50 (second compound 0.00949 µM): > 8.50
- pIC50 (second compound 0.03 µM): > 8.50
- pIC50 (second compound 0.0949 µM): > 8.50
- pIC50 (second compound 0.3 µM): > 8.50
- viability, T/C (second compound 0.000949 µM, first compound 0.00316 µM): 66.8%
- viability, T/C (second compound 0.000949 µM, first compound 0.01 µM): 59.9%
- viability, T/C (second compound 0.000949 µM, first compound 0.0316 µM): 63.8%
- viability, T/C (second compound 0.000949 µM, first compound 0.1 µM): 49.5%
- viability, T/C (second compound 0.000949 µM, first compound 0.316 µM): 29.4%
- viability, T/C (second compound 0.000949 µM, first compound 1 µM): 9.76%
- viability, T/C (second compound 0.003 µM, first compound 0.00316 µM): 55.3%
- viability, T/C (second compound 0.003 µM, first compound 0.01 µM): 49.6%
- viability, T/C (second compound 0.003 µM, first compound 0.0316 µM): 40.7%
- viability, T/C (second compound 0.003 µM, first compound 0.1 µM): 25.4%
- viability, T/C (second compound 0.003 µM, first compound 0.316 µM): 14%
- viability, T/C (second compound 0.003 µM, first compound 1 µM): 6.79%
- viability, T/C (second compound 0.00949 µM, first compound 0.00316 µM): 39.3%
- viability, T/C (second compound 0.00949 µM, first compound 0.01 µM): 36.5%
- viability, T/C (second compound 0.00949 µM, first compound 0.0316 µM): 27.8%
- viability, T/C (second compound 0.00949 µM, first compound 0.1 µM): 16.7%
- viability, T/C (second compound 0.00949 µM, first compound 0.316 µM): 7.84%
- viability, T/C (second compound 0.00949 µM, first compound 1 µM): 4.42%
- viability, T/C (second compound 0.03 µM, first compound 0.00316 µM): 23.9%
- viability, T/C (second compound 0.03 µM, first compound 0.01 µM): 23.5%
- viability, T/C (second compound 0.03 µM, first compound 0.0316 µM): 18.2%
- viability, T/C (second compound 0.03 µM, first compound 0.1 µM): 8.87%
- viability, T/C (second compound 0.03 µM, first compound 0.316 µM): 4.75%
- viability, T/C (second compound 0.03 µM, first compound 1 µM): 4.55%
- viability, T/C (second compound 0.0949 µM, first compound 0.00316 µM): 17.6%
- viability, T/C (second compound 0.0949 µM, first compound 0.01 µM): 12.8%
- viability, T/C (second compound 0.0949 µM, first compound 0.0316 µM): 8.13%
- viability, T/C (second compound 0.0949 µM, first compound 0.1 µM): 5.18%
- viability, T/C (second compound 0.0949 µM, first compound 0.316 µM): 4.88%
- viability, T/C (second compound 0.0949 µM, first compound 1 µM): 4.22%
- viability, T/C (second compound 0.3 µM, first compound 0.00316 µM): 14.9%
- viability, T/C (second compound 0.3 µM, first compound 0.01 µM): 12.6%
- viability, T/C (second compound 0.3 µM, first compound 0.0316 µM): 6.29%
- viability, T/C (second compound 0.3 µM, first compound 0.1 µM): 4%
- viability, T/C (second compound 0.3 µM, first compound 0.316 µM): 3.7%
- viability, T/C (second compound 0.3 µM, first compound 1 µM): 3.03%
